“Also recorded” adds a separate entry of the source.
Assays:
cardiac gene expression = assay: Real-time quantitative RT-PCR of heart RNA; type: in vivo, mice; set-up: key to Oncostatin receptor (Osmr), Real-time RT-PCR: Ind/Red (Induced/reduced) are used instead of fold-changes where no transcript was detected in one of the two samples being compared; Ind/Red (Induced/reduced) are used instead of fold-changes where no transcript was detected in one of the two samples being compared; details: drug + isoproterenol vs isoproterenol only; for Oncostatin receptor (Osmr), Real-time RT-PCR: no transcript detected in one of the two samples
Experimental: Real-time reverse transcriptase-polymerase chain reaction (RT-PCR). Real-time quantitative RT-PCR was performed in the iCycler iQ multi-Color real-time PCR detection system (Bio-Rad, Hercules, Calif.) using SYBR Green I dye (Qiagen, Valencia, Calif.) as described by the manufacturer. Briefly, 100 ng of RNA was placed into a 25 μl reaction volume containing 2.5 μl of each primer set (Quantitect Primer Assays, Qiagen), 12.5 μl SYBER Green PCR master mix, and 0.25 μl reverse transcriptase. A typical protocol included reverse transcription at 50° C. for 30 minutes and a denaturation step at 95° C. for 15 minutes followed by 35 cycles with 94° C. denaturation for 15 seconds, 55 C annealing for 30 seconds and 72 C extension for 30 seconds. Detection of the fluorescent product was performed at the end of the extension period at 60° C. for 20 seconds. To confirm amplification specificity, the PCR products were subjected to a melting curve analysis. […] Targets were normalized to reactions performed using Quantitect GAPDH primer assay (Qiagen), and fold change was determined using the comparative threshold method (20).

[1] = doxycycline co-administered with carbamazepine; cited from earlier work
[2] = system: positive chronotropic effect induced by isoproterenol; assay: Heart rate of isoproterenol-treated mice; type: in vivo; details: day 9 of treatment, vs isoproterenol-only mice; n=5; FIG. 5
Experimental: (§1) All animal and mouse studies and/or models of cardiac hypertrophy were conducted in accordance with the standards set forth in the Guide for the Care and Use of Laboratory Animals (NIH Publication No. 85-23, revised 1996) and were approved by our Institutional Animal Care and Use Committee. Eight week-old C57BL/6 male mice (Jackson Laboratory) were given isoproterenol (Sigma Aldrich) at 40 mg·kg^−1d^−1 administered S.Q. via micro-osmotic pump insertion (ALZET 1007D). Briefly, animals were anesthetized with isoflurane (1.5%) and oxygen (98.5%) using an animal ventilator (Surgivet), an incision (1 cm) was made on the back between the shoulder blades, and micro-osmotic pumps containing isoproterenol dissolved in a saline solution (0.9% NaCl) were inserted into the infrascapular subcutaneous tissue.
Doxycycline was given in drinking water at 6 mg mL^−1 (Sigma Aldrich) containing 5% sucrose unless specified otherwise. Control animals were given 5% sucrose water. […] Briefly, chow was crunched in powder and then mixed with carbamazepine. […]
The heart rates of the mice were measured before induction of cardiac hypertrophy and after treatment on day 9, which was 1 day before they were sacrificed. […] Heart rates were measured before the experiment (t0) and 1 day before the sacrifice. […]

adenylate cyclase = details: by inhibiting adenylate cyclase; cited from earlier work
[3] = cited from earlier work
CREB = assay: Western blot of phosphorylation status of CREB; type: in vivo; details: mice with isoproterenol-induced cardiac hypertrophy
Experimental: Western Blots. The antibodies for Adra1b and GAPDH were purchased from Santa Cruz Biochemical Co. (Santa Cruz, Calif.). All other antibodies were purchased from Cell Signaling Technology, and Western blot analysis was performed as previously described (21). Briefly, equal amounts of total protein were loaded and separated on sodium dodecyl sulfate (SDS)—10% polyacrylamide gels and then transferred to nitrocellulose membranes. Membranes were blocked with 5% milk and washed in 1× Tween (0.1%)—Tris-buffered saline (TTBS) three times for 5 minutes each. Primary antibodies diluted 1:1000 in 5% milk or bovine serum albumin (BSA) (prepared in 1×TTBS) were allowed to incubate overnight at 4° C. After washing, horseradish peroxidase (HRP)-conjugated secondary antibody (Cell Signaling Technology) was diluted 1:2000 in 5% milk and applied to membranes. Subsequently, membranes were washed and a chemiluminescence substrate (Pierce, Rockford Ill.) was applied and allowed to incubate at room temperature for 5 minutes.

Histone Deacetylase = details: cited from earlier work
[4] = system: isoproterenol induced cardiac hypertrophy; assay: Isoproterenol-induced cardiac hypertrophy in mice: heart size, heart weight ratios, histology; type: in vivo, C57BL/6 male mice
Experimental: as §1
Doxycycline was given in drinking water at 6 mg mL^−1 (Sigma Aldrich) containing 5% sucrose unless specified otherwise. Control animals were given 5% sucrose water. […] Water was added to the mix 0.8:1 (water weight to powder weight ratio) and the resulting paste diced and heated at 60° C. overnight.
Histology. Animal hearts were excised, fixated with 10% phosphate-buffered formalin for 48 hours, and then embedded in paraffin. Cross-sectional slices in the minor axis were obtained with a microtome and the slices stained using Mayer's hematoxylin and eosin (H&E).
Statistical analysis of the data includes values presented are expressed in mean ±S.E.M. All comparisons between groups were performed using a one way ANOVA followed by the Newman-Keuls test. Differences were considered to be statistically significant when P<0.05.
P-values are obtained from a one way ANOVA. […] The control group (isoproterenol) received regular chow and 7% sucrose water. Each circle is the Heart to Body weights ratio obtained for a mouse, while the dashes are the average for each group.

Row | Compound | Oncostatin receptor (Osmr), Real-time RT-PCR (cardiac gene expression) | Cyclin-dependent kinase inhibitor 1A (p21) (Cdkn1a), Real-time RT-PCR FC (cardiac gene expression; normalized to GAPDH) [FC] | Cytokine inducible SH2-containing protein 3 (Socs3), Real-time RT-PCR FC (cardiac gene expression; normalized to GAPDH) [FC] | GATA binding protein 4 (Gata4), Real-time RT-PCR FC (cardiac gene expression; normalized to GAPDH) [FC] | Matrix metalloproteinase 3 (Mmp3), Real-time RT-PCR FC (cardiac gene expression; normalized to GAPDH) [FC] | NADPH oxidase 4 (Nox4), Real-time RT-PCR FC (cardiac gene expression; normalized to GAPDH) [FC] | Phospholipase A2 group VII (platelet-activating factor acetylhydrolase, plasma) (Pla2g7), Real-time RT-PCR FC (cardiac gene expression; normalized to GAPDH) [FC] | S100 calcium binding protein A8 (calgranulin A) (S100a8), Real-time RT-PCR FC (cardiac gene expression; normalized to GAPDH) [FC] | SET and MYND domain containing 1 (Smyd1), Real-time RT-PCR FC (cardiac gene expression; normalized to GAPDH) [FC] | Serine protease inhibitor 2-2 (Spi2-2) (Serpin3n), Real-time RT-PCR FC (cardiac gene expression; normalized to GAPDH) [FC] | Transformation related protein 53 inducible nuclear protein 1 (Trp53inp1), Real-time RT-PCR FC (cardiac gene expression; normalized to GAPDH) [FC] | other results
1 | C[C@H]1c2cccc(O)c2C(=O)C2=C(O)[C@]3(O)C(=O)C(C(N)=O)=C(O)[C@@H](N(C)C)[C@@H]3[C@@H](O)[C@@H]21 [doxycycline] | Red | −7.0 | −4.0 | 4.9 | −3.5 | −4.0 | −1.9 | −181.0 | 1.6 | −3.8 | −1.9 | Cyclin G2 (Ccng2), Real-time RT-PCR FC (cardiac gene expression; normalized to GAPDH): −5.7 FC; DNA-damage-inducible transcript 4 (Ddit4), Real-time RT-PCR FC (cardiac gene expression; normalized to GAPDH): −5.7 FC; Gem GTPase (Gem), Real-time RT-PCR FC (cardiac gene expression; normalized to GAPDH): −1.8 FC; Lipocalin 2 (Lcn2), Real-time RT-PCR FC (cardiac gene expression; normalized to GAPDH): −9.9 FC; Metallothionein 1 (MT2), Real-time RT-PCR FC (cardiac gene expression; normalized to GAPDH): −14.9 FC; S100 calcium binding protein A9 (calgranulin B) (S100a9), Real-time RT-PCR FC (cardiac gene expression; normalized to GAPDH): −104.0 FC; Tubulin, alpha 4 (Tuba4), Real-time RT-PCR FC (cardiac gene expression; normalized to GAPDH): 36.8 FC; half-life [1]: shorter
2 | NC(=O)N1c2ccccc2C=Cc2ccccc21 [carbamazepine] | Red | −2.5 | −4.3 | 2.0 | −2.5 | −3.5 | −3.5 | −2.1 | 3.3 | −13.9 | −3.0 | heart rate [2]: significantly lower heart rates; also recorded: attenuation of the positive chronotropic effect; basal and forskolin-stimulated cAMP production (adenylate cyclase): abrogate both basal and forskolin-stimulated cAMP production; blood pressure and heart rates ([3]; epileptic patients): lower blood pressure and heart rates; cardiovascular toxic effects ([3]; in vivo): no cardiovascular toxic effects; levels of phosphorylated CREB (CREB): Almost no phosphorylated CREB was detected; inhibition of Histone Deacetylase (HDAC) (Histone Deacetylase): inhibit Histone Deacetylase; hypertrophic phenotype, heart cross sections (histology) ([4]; isoproterenol mice, H&E cross sections, FIG. 2): structure that is relatively well preserved; also recorded: reduced the hypertrophic phenotype; Heart to Body weights ratio ([4]; isoproterenol mice, 10 days, doxycycline 10 mg/mL in 7% sucrose water, carbamazepine […] in chow, FIG. 3, carbamazepine vs control P<0.01): significantly decreased; Heart to Tibia length ratio ([4]; isoproterenol mice, carbamazepine in chow or doxycycline in water vs no drug, FIG. 1, carbamazepine vs control P<0.0001): significantly lower; also recorded: significantly decreased; heart weight ([4]; single isoproterenol and carbamazepine treated mouse, FIG. 2C (untreated isoproterenol mouse 0.1800, wild type 0.1305)): 0.1415 grams
